Measured values: US10611740B2, “Aryl dihydro-2H-benzo[b][1,4]oxazine sulfonamide and related compounds for use as agonists of RORγ and the treatment of disease” (Lycera Corporation, priority 2015, dated 2020)

Target: T1, Gal4-RORγ-LBD (Homo sapiens, UniProt P51449)
T1 construct: expressed in transfected cells; host or cells: HEK-293 cells (pcDNA3.1neo plasmid)
T1 sequence (P51449 269-508 limits assumed): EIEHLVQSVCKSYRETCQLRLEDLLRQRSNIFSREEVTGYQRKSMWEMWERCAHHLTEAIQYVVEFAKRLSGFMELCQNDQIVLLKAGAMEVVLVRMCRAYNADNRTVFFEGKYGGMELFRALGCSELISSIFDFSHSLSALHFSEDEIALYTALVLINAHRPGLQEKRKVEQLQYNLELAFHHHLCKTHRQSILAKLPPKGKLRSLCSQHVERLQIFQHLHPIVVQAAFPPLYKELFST
Test: Gal4-RORγ Luciferase Reporter Assay in HEK-293T Cells
Assay type: cell-based
Settings: HEK-293 cells
Method: Assay procedures and results are described below.
In the following protocol, HEK-293 cells were transfected with a construct comprising the Gal4 DNA binding domain fused to the ligand binding domain of RORγ (Gal4-RORγ-LBD) in a pcDNA3.1neo plasmid, and also with a reporter construct comprising pGL4.31 Gal4-luciferase (Promega). Control cells were prepared similarly using empty pcDNA3.1neo and pGL4.31 vectors.
Trans-IT reagent (Mirus, 60 μL) at room temperature was added drop wise to OptiMEM (Invitrogen, 1.5 ml). This reagent mixture was mixed by inversion then incubated for 5 to 30 minutes at room temperature. It then was added to a solution of both expression vectors (5 μg each), mixed, and incubated at room temperature for about 20 minutes. HEK-293 cells were harvested from incubation flasks by removing the media, treating with TrypLE Express (Invitrogen), and incubating until the cells detached from the bottom of the flask (approximately 2-5 minutes). 10 Million cells were collected by centrifugation and re-suspended in 10 mL of Dulbecco's Modified Eagle Medium, High Glucose (DMEM, Invitrogen) containing 10% Fetal Bovine Serum and 100 IU each of penicillin and streptomycin. The re-suspended cells and the transfection mixture were added to a T75 flask, mixed and incubated overnight at 37° C. and 5% CO2.
The cells were harvested as described above, counted, and centrifuged to obtain the desired number of cells, then re-suspended in complete growth media at 0.75×10^6 cells/mL. The RORγ antagonist, ursolic acid, was added to the cells at a final concentration of 2 μM. Cells were plated at 20 μL of cell suspension/well (10,000-15,000 cells/well) in white tissue culture treated 384 well plates. Test compounds were dissolved at 10 mM in DMSO then diluted into complete growth medium to 5× the final intended test concentration. These drug stock solutions, 5 μL/well were added to the tissue culture plate. The final DMSO concentration was 0.2%. The plates were briefly centrifuged then incubated overnight at 37° C. and 5% CO2. To conduct the assay, the tissue culture plates were allowed to equilibrate to room temperature and One-Glo luciferase reagent (Promega, 25 μL/well) was added. The plates were briefly centrifuged then incubated at room temperature for 10 minutes. The luciferase intensity was read on an Envision plate reader (Perkin Elmer). […] The luciferase signal in the absence of ursolic acid or test compound is defined at 100. The Max Response is the upper plateau in the signal as determined by line-fit using a 4-parameter logistic model in PRISM (GraphPad).

[1] = luciferase reporter, with 2 μM ursolic acid

| EC50 (2 μM ursolic acid) [nM] | EC50 [1] [nM] | SMILES | Gal4-RORγ Assay Max Response (2 μM ursolic acid) | Gal4-RORγ Assay Max Response [1] |
| --- | --- | --- | --- | --- |
| 500 to 5000 | – | O=C(O)[C@@]1(C[C@H]2CN(S(=O)(=O)c3cccc(C(F)(F)F)c3)c3cc(-c4cc(F)cc(OC(F)F)c4)ccc3O2)C[C@@H](O)[C@@H](O)C1 [Compound 65, (1r,3R,4S)-1-(((S)-6-(3-(difluoromethoxy)-5-fluorophenyl)-4-((3-(trifluoromethyl)phenyl)sulfonyl)-3,4-dihydro-2H-benzo[b][1,4]oxazin-2-yl)methyl)-3,4-dihydroxycyclopentane-1-carboxylic acid] | ** (The symbol “**” indicates a value in the range of greater than 90 to 150) | – |
| < 500 | – | O=C(O)C1(C[C@H]2CN(S(=O)(=O)c3cccc(C(F)(F)F)c3)c3cc(-c4cccc(OC(F)(F)F)c4)ccc3O2)CCOCC1 [Compound 78K, (S)-4-((6-(3-(trifluoromethoxy)-phenyl)-4-((3-(trifluoromethyl)-phenyl)sulfonyl)-3,4-dihydro-2H-benzo[b][1.4]oxazin-2-yl)methyl)tetrahydro-2H-pyran-4-carboxylic acid] | ** (The symbol “**” indicates a value in the range of greater than 90 to 150) | – |
| – | 500 to 5000 | COc1ccnc(-c2ccc3c(c2)N(S(=O)(=O)c2cccc(C(F)(F)F)c2)C[C@H](CCC(=O)O)O3)n1 [Compound 4C, (S)-3-(6-(4-methoxypyrimidin-2-yl)-4-((3-(trifluoromethyl)-phenyl)sulfonyl)-3,4-dihydro-2H-benzo[b][1,4]oxazin-2-yl)propanoic acid] | – | ** (The symbol “**” indicates a value in the range of greater than 90 to 150) |
| < 500 | – | O=C(O)C1(C[C@H]2CN(S(=O)(=O)c3cc(F)cc(C(F)(F)F)c3)c3cc(-c4cc(F)ccc4F)ccc3O2)COC1 [Compound 51G, (S)-3-((6-(2,5-difluorophenyl)-4-((3-fluoro-5-(trifluoromethyl)-phenyl)sulfonyl)-3,4-dihydro-2H-benzo[b][1,4]oxazin-2-yl)methyl)oxetane-3-carboxylic acid] | ** (The symbol “**” indicates a value in the range of greater than 90 to 150) | – |
| 500 to 5000 | – | O=C(O)[C@]1(C[C@H]2CN(S(=O)(=O)c3cccc(C(F)(F)F)c3)c3cc(-c4cc(F)cc(OC(F)F)c4)ccc3O2)C[C@@H](O)[C@@H](O)C1 [Compound 64, (1s,3R,4S)-1-(((S)-6-(3-(difluoromethoxy)-5-fluorophenyl)-4-((3-(trifluoromethyl)phenyl)sulfonyl)-3,4-dihydro-2H-benzo[b][1,4]oxazin-2-yl)methyl)-3,4-dihydroxycyclopentane-1-carboxylic acid] | ** (The symbol “**” indicates a value in the range of greater than 90 to 150) | – |
| < 500 | – | COc1cc(F)cc(-c2ccc3c(c2)N(S(=O)(=O)c2cccc(C(F)(F)F)c2)C[C@H](CC2(C(=O)O)CCOCC2)O3)c1F [Compound 78S, (S)-4-((6-(2,5-difluoro-3-methoxyphenyl)-4-((3-(trifluoro-methyl)phenyl)sulfonyl)-3,4-dihydro-2H-benzo[b][1,4]oxazin-2-yl)methyl)tetrahydro-2H-pyran-4-carboxylic acid] | ** (The symbol “**” indicates a value in the range of greater than 90 to 150) | – |
| 500 to 5000 | – | CC(C)(O[C@H]1Cc2ccc(-c3cc(F)ccc3F)cc2N(S(=O)(=O)c2cccc(C(F)(F)F)c2)C1)C(=O)O [Compound 83C, (S)-2-((7-(2,5-difluorophenyl)-1-((3-(trifluoromethyl)phenyl)sulfonyl)-1,2,3,4-tetrahydroquinolin-3-yl)oxy)-2-methylpropanoic acid] | ** (The symbol “**” indicates a value in the range of greater than 90 to 150) | – |
| < 500 | – | O=C(O)C1(C[C@H]2CN(S(=O)(=O)c3cccc(C(F)(F)F)c3)c3cc(-c4cc(Cl)cc(F)c4F)ccc3O2)CCOCC1 [Compound 78W, (S)-4-((6-(5-chloro-2,3-difluorophenyl)-4-((3-(trifluoromethyl)phenyl)sulfonyl)-3,4-dihydro-2H-benzo[b][1,4]oxazin-2-yl)methyl)tetrahydro-2H-pyran-4-carboxylic acid] | ** (The symbol “**” indicates a value in the range of greater than 90 to 150) | – |
| < 500 | – | COc1cc(F)c(F)c(-c2ccc3c(c2)N(S(=O)(=O)c2cccc(C(F)(F)F)c2)C[C@H](CC2(C(=O)O)CCOCC2)O3)c1 [Compound 78U, (S)-4-((6-(2,3-difluoro-5-methoxyphenyl)-4-((3-(trifluoromethyl)phenyl)sulfonyl)-3,4-dihydro-2H-benzo[b][1,4]oxazin-2-yl)methyl)tetrahydro-2H-pyran-4-carboxylic acid] | ** (The symbol “**” indicates a value in the range of greater than 90 to 150) | – |
| 500 to 5000 | – | CC(C)(O[C@H]1Cc2ccc(-c3cc(F)cc(OC(F)F)c3)cc2N(S(=O)(=O)c2cccc(C(F)(F)F)c2)C1)C(=O)O [Compound 83F, (S)-2-((7-(3-(difluoromethoxy)-5-fluorophenyl)-1-((3-(trifluoromethyl)phenyl)sulfonyl)-1,2,3,4-tetrahydroquinolin-3-yl)oxy)-2-methylpropanoic acid] | * (The symbol “*” indicates a value in the range of 25 to 90) | – |
| < 500 | – | CC(=O)N[C@H]1C[C@@H]([C@H]2CN(S(=O)(=O)c3cccc(C(F)(F)F)c3)c3cc(-c4cc(F)ccc4F)ccc3O2)C1 [Compound 60L, N-((1R,3s)-3-((S)-6-(2,5-difluorophenyl)-4-((3-(trifluoro-methyl)phenyl)sulfonyl)-3,4-dihydro-2H-benzo[b][1,4]-oxazin-2-yl)cyclobutyl)-acetamide] | ** (The symbol “**” indicates a value in the range of greater than 90 to 150) | – |
| < 500 | – | O=C(O)C1(C[C@H]2CN(S(=O)(=O)c3cccc(C(F)(F)F)c3)c3cc(-c4cc(F)cc(C(F)(F)F)c4)ccc3O2)CCOCC1 [Compound 78O, (S)-4-((6-(3-fluoro-5-(trifluoro-methyl)phenyl)-4-((3-(trifluoro-methyl)phenyl)sulfonyl)-3,4-dihydro-2H-benzo[b][1,4]oxazin-2-yl)methyl)tetrahydro-2H-pyran-4-carboxylic acid] | ** (The symbol “**” indicates a value in the range of greater than 90 to 150) | – |
| < 500 | – | O=C(O)C1(C[C@H]2CN(S(=O)(=O)c3cccc(C(F)(F)F)c3)c3cc(-c4cc(F)cc(F)c4F)ccc3O2)CCOCC1 [Compound 78T, (S)-4-((4-((3-(trifluoromethyl)-phenyl)sulfonyl)-6-(2,3,5-trifluorophenyl)-3,4-dihydro-2H-benzo[b][1,4]oxazin-2-yl)methyl)tetrahydro-2H-pyran-4-carboxylic acid] | ** (The symbol “**” indicates a value in the range of greater than 90 to 150) | – |
| < 500 | – | O=C(O)C1(C[C@H]2CN(S(=O)(=O)c3cncc(C(F)(F)F)c3)c3cc(-c4cc(F)cc(OC(F)F)c4)ccc3O2)COC1 [Compound 51L, (S)-3-((6-(3-(difluoromethoxy)-5-fluorophenyl)-4-((5-(trifluoro-methyl)pyridin-3-yl)sulfonyl)-3,4-dihydro-2H-benzo[b][1,4]oxazin-2-yl)methyl)oxetane-3-carboxylic acid] | ** (The symbol “**” indicates a value in the range of greater than 90 to 150) | – |
| < 500 | – | O=C(O)C1(C[C@H]2CN(S(=O)(=O)c3cccc(C(F)(F)F)c3)c3cc(-c4cccc(F)c4F)ccc3O2)CCOCC1 [Compound 78P, (S)-4-((6-(2,3-difluorophenyl)-4-((3-(trifluoromethyl)phenyl)-sulfonyl)-3,4-dihydro-2H-benzo[b][1,4]oxazin-2-yl)methyl)tetrahydro-2H-pyran-4-carboxylic acid] | ** (The symbol “**” indicates a value in the range of greater than 90 to 150) | – |
